Columns and labels:
Type in all cases: cell-based
[1] = biological target: T1, P2XA (Dictyostelium discoideum, UniProt Q86JM7); assay: whole-cell patch clamp, ADP-evoked current, HEK293 cells; conditions: weak agonist; external and internal Na+; authors note possible ATP impurity in commercial nucleotides
T1 construct: humanized cDNA, full length, C-terminal EYMPME (EE) tag, pcDNA3.1, transient expression in HEK293 cells
T1 sequence (Q86JM7 1-378): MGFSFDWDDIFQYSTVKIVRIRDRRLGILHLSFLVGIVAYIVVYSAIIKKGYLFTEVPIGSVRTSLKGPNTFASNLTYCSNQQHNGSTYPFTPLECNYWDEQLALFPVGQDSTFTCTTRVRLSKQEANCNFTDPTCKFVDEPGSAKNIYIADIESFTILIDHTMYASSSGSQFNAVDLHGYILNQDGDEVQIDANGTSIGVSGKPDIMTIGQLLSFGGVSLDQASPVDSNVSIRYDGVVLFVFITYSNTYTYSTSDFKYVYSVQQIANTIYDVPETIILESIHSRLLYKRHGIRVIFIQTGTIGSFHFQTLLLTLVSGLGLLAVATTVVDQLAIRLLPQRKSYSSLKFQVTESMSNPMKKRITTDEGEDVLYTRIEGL

[2] = biological target: T2, P2XE (Dictyostelium discoideum, UniProt Q54JH4); assay: whole-cell patch clamp, ATP-evoked current, HEK293 cells
T2 construct: humanized cDNA (Genscript), full length, C-terminal EYMPME (EE) tag, pcDNA3.1, transient expression in HEK293 cells
T2 sequence (Q54JH4 1-388): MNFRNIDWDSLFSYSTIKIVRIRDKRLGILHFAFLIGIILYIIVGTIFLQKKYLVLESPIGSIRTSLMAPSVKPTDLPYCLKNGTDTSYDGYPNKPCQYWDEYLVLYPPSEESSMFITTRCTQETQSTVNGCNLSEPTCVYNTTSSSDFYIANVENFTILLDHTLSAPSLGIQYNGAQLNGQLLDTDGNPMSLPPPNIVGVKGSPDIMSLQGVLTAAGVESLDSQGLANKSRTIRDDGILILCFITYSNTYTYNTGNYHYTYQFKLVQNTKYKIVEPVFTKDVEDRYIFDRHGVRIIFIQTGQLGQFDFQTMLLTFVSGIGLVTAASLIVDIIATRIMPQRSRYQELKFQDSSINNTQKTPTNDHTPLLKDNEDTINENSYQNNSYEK

[3] = biological target: T3, P2XB (Dictyostelium discoideum, UniProt Q553Y1); assay: as above
T3 construct: humanized cDNA (Genscript), full length, C-terminal EYMPME (EE) tag, pcDNA3.1, transient expression in HEK293 cells
T3 sequence (Q553Y1 1-369): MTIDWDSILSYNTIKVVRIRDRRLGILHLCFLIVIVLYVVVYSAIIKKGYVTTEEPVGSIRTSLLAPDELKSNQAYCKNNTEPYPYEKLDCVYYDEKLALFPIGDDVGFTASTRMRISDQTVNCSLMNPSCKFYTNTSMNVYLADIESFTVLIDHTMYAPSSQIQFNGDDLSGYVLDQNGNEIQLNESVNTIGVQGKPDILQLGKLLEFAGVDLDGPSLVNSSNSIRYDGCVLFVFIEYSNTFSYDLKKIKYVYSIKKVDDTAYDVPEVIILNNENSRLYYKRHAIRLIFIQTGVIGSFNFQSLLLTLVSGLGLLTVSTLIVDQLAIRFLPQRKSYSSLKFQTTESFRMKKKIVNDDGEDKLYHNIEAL

[4] = biological target: T1, P2XA; assay: as above
[5] = biological target: T4, P2XD (Dictyostelium discoideum, UniProt Q54J33); assay: as above
T4 construct: humanized cDNA (Genscript), full length, C-terminal EYMPME (EE) tag, pcDNA3.1, transient expression in HEK293 cells
T4 sequence (Q54J33 1-407): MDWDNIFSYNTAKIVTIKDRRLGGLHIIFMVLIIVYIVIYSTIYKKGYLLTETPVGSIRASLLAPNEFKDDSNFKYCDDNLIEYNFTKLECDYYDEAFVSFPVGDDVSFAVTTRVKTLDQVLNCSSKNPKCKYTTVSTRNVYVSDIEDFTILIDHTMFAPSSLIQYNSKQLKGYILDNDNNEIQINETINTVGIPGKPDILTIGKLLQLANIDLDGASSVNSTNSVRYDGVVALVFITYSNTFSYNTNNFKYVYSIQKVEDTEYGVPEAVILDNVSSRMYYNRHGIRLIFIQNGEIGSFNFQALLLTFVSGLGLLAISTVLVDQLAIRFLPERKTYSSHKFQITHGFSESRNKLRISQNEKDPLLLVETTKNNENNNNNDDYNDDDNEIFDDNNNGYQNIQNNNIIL

Structure (SMILES) | % of ATP current at 3 mM [1] | EC50 [2] [µM] | EC50 [3] [mM] | EC50 [4] [µM] | EC50 [5] [mM]
Nc1ncnc2c1ncn2[C@@H]1O[C@H](COP(=O)(O)OP(=O)(O)O)[C@@H](O)[C@H]1O [ADP] | ~ 10% | – | – | – | –
Nc1ncnc2c1ncn2[C@@H]1O[C@H](COP(=O)(O)OP(=O)(O)OP(=O)(O)O)[C@@H](O)[C@H]1O [ATP] | – | ~300 | ~3 | 158 | ~3
